Data as given in patent publication US20250099485A1, “COMPOSITIONS FOR PROMOTING HAIR GROWTH” (ESTETRA SRL, priority 2021, published 2025).

What was measured:
K15 positive cells = test: Hair follicle organ culture: K15 expression, stem cells; format: cell-based, human; conditions: vs vehicle
Procedure: (§1) 12-44 full-length frontotemporal hair follicles (HF) were obtained from four human female donors >50 years old. Donors were caucasian female subjects […], respectively (Donor 1: 12 temporal anagen HFs; Donor 2: 29; Donor 3: 44; Donor 4: 32). After microdissection from skin as described (Edelkamp et al., Methods Mol Biol, 2020, 2154:105-119; and Langan et al., Exp Dermatol, 2015, December; 24(12):903-1), HFs were placed in adequate culture medium and allowed a 24 h rest period to allow them to recover from the trauma of microdissection. Test substance (either vehicle (0.3% EtOH) or E4 at concentrations of 30 μM, 3 μM or 300 nM) was added to the medium at the end of the 24 h. Total culturing time was 5-7 days depending on the studied parameters and the experimental question. The experimental design for the hair follicle organ culture experiment is depicted in FIG. 12. Longer term culture experiments may be used to analyze the capacity to delay the onset of catagen.
K15 is a type I cytokeratin expressed in HF bulge stem cells and their progeny (Purba et al., BioEssays, 2014). It is expressed in the bulge, infra-bulge and suprabulbar ORS. Bulge stem cells are identified using K15 expression, cellular morphology and anatomical localization (below the sebaceous glands, at the area where the arrector pili muscle attaches to the HF). K15 expression was analyzed in the bulge basal layer and in the suprabulbar ORS, and proliferation of K15 positive cells was evaluated in combination with Ki67 immunofluorescence staining.

[1] = test system: human hair follicles (HF); test: Hair follicle organ culture: hair shaft elongation ex vivo; format: cell-based; conditions: 300 nM, 3 μM, 30 μM, n=4 female donors
Procedure: as §1, with “Longer term culture experiments may be used to analyze the capacity to delay the onset of catagen.” left out
To determine the HF length, each HF was measured from the end of the bulb connective tissue sheath to the end of the distal outer root sheath (ORS), using a digital light microscope at 50× magnification (VHX 900 Keyence Corporation, Osaka, Japan) and the affiliated software (Edelkamp et al., Methods Mol Biol, 2020, 2154:105-119; and Langan et al., Exp Dermatol, 2015, December; 24(12):903-1). […] Elongation is expressed as millimeters of growth and/or as percentage elongation from the baseline measurement.

[2] = test system: CD34 positive cells in the suprabulbar ORS; test: Hair follicle organ culture: CD34 expression, stem cell progeny; format: cell-based, human; conditions: vs vehicle
Procedure: as §1
CD34 is a marker expressed by the progeny of HF bulge stem cells. It is expressed in the most external layer of the outer root sheet (ORS) below the isthmus (sub-bulge to suprabulbar regions) (Purba et al., BioEssays, 2014, May; 36(5):513-25). CD34 expression and percentage of CD34^+ cells were analyzed in the suprabulbar ORS.

human dermal fibroblasts = test: Wound healing gene expression RT-qPCR array, fibroblasts; format: cell-based; conditions: 10^−7M, 15 h, relative to ethanol control
Text: The healing properties of E4 were investigated at the transcriptional level by studying gene expression changes by RT-qPCR. 84 genes qPCR arrays focusing on the wound healing process were used. These arrays contain genes important for the three phases of wound healing process, including extra-cellular matrix (ECM) remodeling factors, inflammatory cytokines and chemokines as well as growth factors and major signaling molecules. The changes in gene expression were interpreted in a dermo cosmetic context in order to highlight the potential benefits of the E4 towards wound healing.
After 24 h seeded on 25 cm^2 culture flasks (T25), cells were treated with E4 during 15 h. The culture conditions were the same as the one used for the scratch test (see Example 2) and cells were treated with E4 in absence of FBS/HKGS. The cell density used for gene expression assay was lower than the ones used for the scratch tests: 15 800 cells/cm^2 for gene expression assay vs 113 636 cell/cm^2 for keratinocytes and 100 000 cells/cm^2 for fibroblasts in culture inserts for wound closure assay.
At the end of the 15 h treatment with E4 10^−7M or ethanol 0.1% used as control, total RNAs were extracted using the Qiagen RNeasy kit (Qiagen). Cells were rinsed with cold PBS and lysed in the ad hoc buffer provided in the kit. Extraction was performed according to the supplier's recommendations. The collected RNAs were stored at −80° C.
The RNA concentration was determined by spectrophotometric measurement (QIAxpert, Qiagen) and the RNA quality was analyzed by capillarity electrophoresis (Agilent Bioanalyzer 2100—Agilent RNA 6000 Nano Kit).
Reverse transcription was performed with kit “RT2 First Strand Kit” (Qiagen) from total RNA according to the manufacturer's instructions.
The qPCR method was used to quantify the expression changes of specific markers in the cDNA populations. The arrays “RT2 Profiler PCR Array human wound healing” containing specific primers for 84 target genes.
The amplification of target genes was performed following the supplier's recommendations thanks to a “HotStart Taq DNA Polymerase” and to the use of SYBR Green as detection method. The SYBR Green is a marker emitting fluorescence once inserted between the paired bases of nucleic acids. The fluorescence intensity is thus directly proportional to the quantity of produced amplicons.
The qPCRs were run using the Quantstudio7 Real-Time PCR System (Applied Biosystems) and its software (QuantStudio real time PCR Software v1.3. software, Applied Biosystems).
The data obtained for E4 treated conditions were compared to the ethanol control in both cell types. The threshold cycles (Ct) values were normalized to the mean of Ct of several housekeeping genes present on the array (indicated in the table below). The maximum Ct cut-off value was fixed at 36 cycles meaning that Ct values above 36 were not considered in the analysis.

DP fibroblasts = test: Hair follicle organ culture: DP fibroblast emigration; format: cell-based, human; conditions: vs vehicle
Procedure: as §1
The DP resident fibroblasts are subjected to migration in the transition between anagen and catagen phase (Hawkshaw et al., Journ of Invest Dermatol, 2015, 135(8):2129-2132). In catagen onset, DP fibroblasts emigrate to the dermal cup through the DP stalk, whereas at anagen induction, they immigrate back in the DP. Quantifying the number of DP fibroblasts present in the DP stalk and in the DP (Kloepper et al., Exp Dermatol, 2010, March; 19(3):305-12) is therefore a direct readout for anagen induction or catagen promotion. K 15 expression—Stem cells.

C[C@]12CC[C@@H]3c4ccc(O)cc4CC[C@H]3[C@@H]1[C@@H](O)[C@@H](O)[C@@H]2O [E4, 1,3,5 (10)-estratrien-3,15alpha,16alpha,17beta-tetrol]
percentage of K15 positive cells in the suprabulbar ORS (K15 positive cells; 300 nM, 3 μM, 30 μM): did not have any effect | decreased proliferation of K15 positive cells in the suprabulbar ORS (Ki-67) (K15 positive cells; 300 nM): significantly | increased proliferation of K15 positive cells in the bulge basal layer (Ki-67) (K15 positive cells; 300 nM): tendentially | decreased proliferation of K15 positive cells in the suprabulbar ORS (Ki-67) (K15 positive cells; 3 μM): tendentially | increased proliferation of K15 positive cells in the bulge basal layer (Ki-67) (K15 positive cells; 3 μM): tendentially | percentage of K15 positive cells in the bulge basal layer (K15 positive cells; 3 μM): significantly decreased | increased proliferation of K15 positive cells in the bulge basal layer (Ki-67) (K15 positive cells; 30 μM): significantly | hair shaft production [1]: did not modify | increased percentage of CD34 positive cells in the suprabulbar ORS ([2]; 300 nM): tendentially | increased percentage of CD34 positive cells in the suprabulbar ORS ([2]; 3 μM): significantly | increased percentage of CD34 positive cells in the suprabulbar ORS ([2]; 30 μM): tendentially | COL1A2 (Collagen alpha-2(I) chain) expression, FC (human dermal fibroblasts): 0.9445 Fold Change (FC) | CTGF (CCN family member 2) expression, FC (human dermal fibroblasts): 0.7643 Fold Change (FC) | MAPK1 (Mitogen-activated protein kinase 1) expression, FC (human dermal fibroblasts): 0.9284 Fold Change (FC) | MMP7 (Matrix metalloproteinase-7; Matrilysin) expression, FC (human dermal fibroblasts): 1.1451 Fold Change (FC) | SERPINE1 (Plasminogen activator inhibitor 1) expression, FC (human dermal fibroblasts): 0.8516 Fold Change (FC) | VTN (Vitronectin) expression, FC (human dermal fibroblasts): 0.7652 Fold Change (FC) | WNT5A (Protein Wnt-5a) expression, FC (human dermal fibroblasts): 0.8930 Fold Change (FC) | density of cells in the inductive dermal cup (DP fibroblasts; 300 nM, 3 μM, 30 μM): no significant impact | total number of cells in the DP stalk (DP fibroblasts; 300 nM): significantly reduced | total number of cells in the DP stalk (DP fibroblasts; 3 μM): significantly reduced | density of cells in the DP stalk (DP fibroblasts; all concentrations): tendentially decreased | density of cells in the DP (DP fibroblasts; all tested concentrations): did not strikingly affect
